The source made the active and inactive calls.
Key:
[1] = biological target: Potassium voltage-gated channel subfamily KQT member 2 (Rattus norvegicus, UniProt O88943); experiment: KCNQ2 potassium channel inhibitors, dose response, cell-based, automated electrophysiology, set II, rat KCNQ2 (AID 588637); assay type: functional
[2] = biological target: T1, RNA-binding protein pos-1 (Caenorhabditis elegans, UniProt G5EF15); experiment: inhibitors of POS-1/mex-3 RNA binding, dose response, biochemical, fluorescence polarization (AID 1964);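 note: purified POS-1 fused to maltose binding protein made in E. coli; potency of compounds blocking POS-1 binding to fluorescent RNA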
T1 sequence (G5EF15 whole entry): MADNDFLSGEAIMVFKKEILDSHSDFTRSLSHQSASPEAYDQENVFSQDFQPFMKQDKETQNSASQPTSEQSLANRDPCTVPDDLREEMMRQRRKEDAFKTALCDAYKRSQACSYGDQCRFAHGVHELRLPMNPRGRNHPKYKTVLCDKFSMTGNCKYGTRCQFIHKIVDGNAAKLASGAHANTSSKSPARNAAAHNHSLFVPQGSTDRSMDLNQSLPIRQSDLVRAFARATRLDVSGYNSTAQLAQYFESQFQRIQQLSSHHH

[3] = biological target: T2, Zinc finger protein mex-5 (Caenorhabditis elegans, UniProt Q9XUB2); experiment: MEX-5/TCR-2 RNA interaction inhibitors, dose response, biochemical, C. elegans, fluorescence polarization (AID 1960)
T2 sequence (Q9XUB2 whole entry): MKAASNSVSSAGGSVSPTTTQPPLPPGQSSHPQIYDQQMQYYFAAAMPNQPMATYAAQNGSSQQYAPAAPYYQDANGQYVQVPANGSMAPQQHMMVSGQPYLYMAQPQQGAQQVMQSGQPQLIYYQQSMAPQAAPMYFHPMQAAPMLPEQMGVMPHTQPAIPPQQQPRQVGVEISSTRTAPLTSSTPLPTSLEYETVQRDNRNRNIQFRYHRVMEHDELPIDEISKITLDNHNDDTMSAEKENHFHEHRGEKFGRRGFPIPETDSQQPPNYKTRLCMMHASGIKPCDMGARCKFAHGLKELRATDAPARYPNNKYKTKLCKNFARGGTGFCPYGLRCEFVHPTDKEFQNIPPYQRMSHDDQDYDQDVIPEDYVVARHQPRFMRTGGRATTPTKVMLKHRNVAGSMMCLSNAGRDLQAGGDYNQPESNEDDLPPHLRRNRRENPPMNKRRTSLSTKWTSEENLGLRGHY

[4] = biological target: Dual specificity tyrosine-phosphorylation-regulated kinase 1A (Rattus norvegicus, UniProt Q63470); assay type: biochemical, Homo sapiens
[5] = biological target: T3, Mitochondrial peptide methionine sulfoxide reductase (Bos taurus, UniProt P54149); experiment: Absorbance-based biochemical high throughput dose response assay for activators of Methionine sulfoxide reductase A (MsrA).; assay type: functional
T3 sequence (P54149 whole entry): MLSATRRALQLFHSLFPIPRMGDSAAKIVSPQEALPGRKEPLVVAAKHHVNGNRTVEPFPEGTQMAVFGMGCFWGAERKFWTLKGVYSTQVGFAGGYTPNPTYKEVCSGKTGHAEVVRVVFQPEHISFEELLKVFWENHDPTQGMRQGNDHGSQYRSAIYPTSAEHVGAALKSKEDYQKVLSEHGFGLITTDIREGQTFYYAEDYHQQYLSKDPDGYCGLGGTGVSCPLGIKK

[6] = biological target: Tyrosine-protein phosphatase non-receptor type 11 (Homo sapiens, UniProt Q06124); experiment: SHP2 phosphatase inhibition, dose response, selectivity assay for STEP inhibitor project, biochemical (AID 602367); assay type: functional; conditions: read-out: IC50_Mean
[7] = biological target: Tyrosine-protein phosphatase non-receptor type 5 (Homo sapiens, UniProt P54829); experiment: STEP phosphatase inhibitors, confirmation, biochemical, fluorescence intensity, uHTS hits (AID 602372); assay type: functional; conditions: read-out: IC50_Mean
[8] = biological target: Dual specificity protein phosphatase 3 (Homo sapiens, UniProt P51452); experiment: VHR phosphatase inhibition, dose response, selectivity assay for STEP inhibitor project, biochemical (AID 602374); assay type: functional; conditions: read-out: IC50_Mean
Chain of Dual specificity protein phosphatase 3 (P51452 whole entry, the tested form may be a part): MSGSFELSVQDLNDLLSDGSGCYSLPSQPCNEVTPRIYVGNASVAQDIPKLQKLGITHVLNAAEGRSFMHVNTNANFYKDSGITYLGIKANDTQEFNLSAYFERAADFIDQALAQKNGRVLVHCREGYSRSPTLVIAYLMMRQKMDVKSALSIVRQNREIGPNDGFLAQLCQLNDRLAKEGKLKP

[9] = ARNT/TACC3 interaction disruptors, potency, confirmation, biochemical, AlphaScreen, cherry-picked samples (AID 651703); assay type: functional, Homo sapiens;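 note: His-tagged ARNT PAS-B domain paired with GST-TACC3 E629A dimer coactivator fragment; potency of inhibitors that break up the complex and lower AlphaScreen signal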
[10] = biological target: T4, Rac GTPase-activating protein 1 (Homo sapiens, UniProt Q9H0H5); experiment: MgcRacGAP GTPase-activating activity inhibitors, confirmation, biochemical, ADP Hunter fluorescence, primary and confirmatory (AID 624330); assay type: functional
T4 sequence (Q9H0H5 whole entry): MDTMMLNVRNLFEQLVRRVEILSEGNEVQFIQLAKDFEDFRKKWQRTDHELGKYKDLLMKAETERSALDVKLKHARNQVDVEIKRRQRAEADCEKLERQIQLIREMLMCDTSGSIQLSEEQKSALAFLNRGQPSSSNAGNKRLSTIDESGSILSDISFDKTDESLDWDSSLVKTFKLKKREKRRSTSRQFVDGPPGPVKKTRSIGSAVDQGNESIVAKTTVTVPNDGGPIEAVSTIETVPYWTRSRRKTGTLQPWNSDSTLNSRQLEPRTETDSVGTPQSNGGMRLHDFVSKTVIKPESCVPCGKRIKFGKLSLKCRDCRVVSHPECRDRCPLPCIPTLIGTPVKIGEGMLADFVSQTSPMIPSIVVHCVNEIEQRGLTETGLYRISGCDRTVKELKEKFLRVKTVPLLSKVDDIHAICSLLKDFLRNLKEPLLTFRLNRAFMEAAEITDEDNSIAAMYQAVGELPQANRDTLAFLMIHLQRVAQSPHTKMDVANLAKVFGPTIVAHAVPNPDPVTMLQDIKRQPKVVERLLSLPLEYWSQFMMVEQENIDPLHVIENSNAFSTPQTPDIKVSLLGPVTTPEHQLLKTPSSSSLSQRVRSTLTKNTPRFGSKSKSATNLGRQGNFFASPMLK

[11] = biological target: ALK tyrosine kinase receptor (Homo sapiens, UniProt Q9UM73); assay type: functional;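 note: ALK tested as one member of a kinase panel screen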
Chain of ALK tyrosine kinase receptor (Q9UM73 whole entry): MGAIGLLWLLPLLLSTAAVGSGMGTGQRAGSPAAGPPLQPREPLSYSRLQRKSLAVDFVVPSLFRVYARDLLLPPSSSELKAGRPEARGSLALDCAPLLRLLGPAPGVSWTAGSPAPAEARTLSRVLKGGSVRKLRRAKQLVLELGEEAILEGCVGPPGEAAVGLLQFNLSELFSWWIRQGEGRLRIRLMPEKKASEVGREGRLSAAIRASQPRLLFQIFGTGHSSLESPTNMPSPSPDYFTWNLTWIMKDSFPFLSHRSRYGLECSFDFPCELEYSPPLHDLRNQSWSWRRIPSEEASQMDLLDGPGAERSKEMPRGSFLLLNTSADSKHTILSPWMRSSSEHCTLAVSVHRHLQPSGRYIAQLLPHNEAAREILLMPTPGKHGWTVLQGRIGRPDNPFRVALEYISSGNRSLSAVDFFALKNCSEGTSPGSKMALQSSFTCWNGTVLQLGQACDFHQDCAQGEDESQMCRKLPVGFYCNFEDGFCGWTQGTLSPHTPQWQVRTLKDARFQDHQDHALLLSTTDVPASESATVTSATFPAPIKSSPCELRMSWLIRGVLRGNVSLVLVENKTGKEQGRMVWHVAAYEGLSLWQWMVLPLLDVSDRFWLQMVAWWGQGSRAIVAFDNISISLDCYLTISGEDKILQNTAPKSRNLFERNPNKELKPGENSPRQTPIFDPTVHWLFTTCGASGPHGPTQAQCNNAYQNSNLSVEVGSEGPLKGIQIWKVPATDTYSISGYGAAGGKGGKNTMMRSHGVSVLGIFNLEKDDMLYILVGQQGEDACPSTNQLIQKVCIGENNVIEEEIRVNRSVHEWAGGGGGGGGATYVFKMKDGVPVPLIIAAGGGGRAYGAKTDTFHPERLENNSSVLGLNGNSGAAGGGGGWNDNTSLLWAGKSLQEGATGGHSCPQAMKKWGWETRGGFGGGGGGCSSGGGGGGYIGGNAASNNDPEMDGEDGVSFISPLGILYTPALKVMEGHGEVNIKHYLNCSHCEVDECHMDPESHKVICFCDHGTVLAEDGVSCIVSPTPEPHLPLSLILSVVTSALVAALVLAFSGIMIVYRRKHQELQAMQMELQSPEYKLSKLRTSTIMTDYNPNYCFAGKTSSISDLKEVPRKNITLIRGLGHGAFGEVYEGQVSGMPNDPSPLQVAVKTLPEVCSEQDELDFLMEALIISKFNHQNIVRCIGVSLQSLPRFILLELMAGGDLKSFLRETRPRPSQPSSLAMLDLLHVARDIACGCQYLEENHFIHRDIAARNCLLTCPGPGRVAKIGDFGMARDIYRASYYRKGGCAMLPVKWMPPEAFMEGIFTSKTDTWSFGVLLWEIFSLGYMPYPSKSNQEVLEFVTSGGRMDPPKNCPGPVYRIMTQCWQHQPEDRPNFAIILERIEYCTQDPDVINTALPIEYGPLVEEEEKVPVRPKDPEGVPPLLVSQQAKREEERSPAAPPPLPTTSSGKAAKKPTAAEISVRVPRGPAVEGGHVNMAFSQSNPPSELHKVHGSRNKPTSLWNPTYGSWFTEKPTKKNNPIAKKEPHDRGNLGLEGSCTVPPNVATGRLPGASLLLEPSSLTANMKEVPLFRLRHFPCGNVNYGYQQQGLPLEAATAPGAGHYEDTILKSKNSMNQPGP

[12] = biological target: Tyrosine-protein kinase Lck (Homo sapiens, UniProt P06239); assay type: functional;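 note: lck was assayed as one member of a kinase panel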
Chain of Tyrosine-protein kinase Lck (P06239 whole entry): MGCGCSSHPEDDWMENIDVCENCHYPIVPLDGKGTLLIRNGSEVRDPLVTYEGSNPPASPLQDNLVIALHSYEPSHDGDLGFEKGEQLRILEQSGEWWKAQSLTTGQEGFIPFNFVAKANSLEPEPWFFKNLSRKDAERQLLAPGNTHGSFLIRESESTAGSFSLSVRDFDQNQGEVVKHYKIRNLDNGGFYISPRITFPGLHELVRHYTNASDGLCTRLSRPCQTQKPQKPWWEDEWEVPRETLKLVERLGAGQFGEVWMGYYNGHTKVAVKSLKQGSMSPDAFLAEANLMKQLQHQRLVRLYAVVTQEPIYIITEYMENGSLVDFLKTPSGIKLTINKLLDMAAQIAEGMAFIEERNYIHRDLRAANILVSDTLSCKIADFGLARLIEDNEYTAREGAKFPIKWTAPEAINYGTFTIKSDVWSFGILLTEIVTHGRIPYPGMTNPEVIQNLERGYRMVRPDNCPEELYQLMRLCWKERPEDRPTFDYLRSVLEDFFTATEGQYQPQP

[13] = biological target: Serine/threonine-protein kinase pim-1 (Homo sapiens, UniProt P11309); assay type: functional
Chain of Serine/threonine-protein kinase pim-1 (P11309 whole entry): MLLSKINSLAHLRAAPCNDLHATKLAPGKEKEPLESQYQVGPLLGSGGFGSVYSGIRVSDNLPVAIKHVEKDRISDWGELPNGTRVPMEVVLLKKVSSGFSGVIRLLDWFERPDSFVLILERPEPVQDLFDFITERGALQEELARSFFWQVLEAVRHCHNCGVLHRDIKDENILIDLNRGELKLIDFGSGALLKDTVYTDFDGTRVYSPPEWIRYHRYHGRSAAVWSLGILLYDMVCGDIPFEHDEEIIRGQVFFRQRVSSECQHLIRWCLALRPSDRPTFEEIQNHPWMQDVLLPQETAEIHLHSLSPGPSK

[14] = biological target: Tyrosine-protein kinase BTK (Homo sapiens, UniProt Q06187); assay type: functional
[15] = biological target: T5, Serine/threonine-protein kinase TAO1 (Homo sapiens, UniProt Q7L7X3); assay type: functional
T5 sequence (Q7L7X3 whole entry): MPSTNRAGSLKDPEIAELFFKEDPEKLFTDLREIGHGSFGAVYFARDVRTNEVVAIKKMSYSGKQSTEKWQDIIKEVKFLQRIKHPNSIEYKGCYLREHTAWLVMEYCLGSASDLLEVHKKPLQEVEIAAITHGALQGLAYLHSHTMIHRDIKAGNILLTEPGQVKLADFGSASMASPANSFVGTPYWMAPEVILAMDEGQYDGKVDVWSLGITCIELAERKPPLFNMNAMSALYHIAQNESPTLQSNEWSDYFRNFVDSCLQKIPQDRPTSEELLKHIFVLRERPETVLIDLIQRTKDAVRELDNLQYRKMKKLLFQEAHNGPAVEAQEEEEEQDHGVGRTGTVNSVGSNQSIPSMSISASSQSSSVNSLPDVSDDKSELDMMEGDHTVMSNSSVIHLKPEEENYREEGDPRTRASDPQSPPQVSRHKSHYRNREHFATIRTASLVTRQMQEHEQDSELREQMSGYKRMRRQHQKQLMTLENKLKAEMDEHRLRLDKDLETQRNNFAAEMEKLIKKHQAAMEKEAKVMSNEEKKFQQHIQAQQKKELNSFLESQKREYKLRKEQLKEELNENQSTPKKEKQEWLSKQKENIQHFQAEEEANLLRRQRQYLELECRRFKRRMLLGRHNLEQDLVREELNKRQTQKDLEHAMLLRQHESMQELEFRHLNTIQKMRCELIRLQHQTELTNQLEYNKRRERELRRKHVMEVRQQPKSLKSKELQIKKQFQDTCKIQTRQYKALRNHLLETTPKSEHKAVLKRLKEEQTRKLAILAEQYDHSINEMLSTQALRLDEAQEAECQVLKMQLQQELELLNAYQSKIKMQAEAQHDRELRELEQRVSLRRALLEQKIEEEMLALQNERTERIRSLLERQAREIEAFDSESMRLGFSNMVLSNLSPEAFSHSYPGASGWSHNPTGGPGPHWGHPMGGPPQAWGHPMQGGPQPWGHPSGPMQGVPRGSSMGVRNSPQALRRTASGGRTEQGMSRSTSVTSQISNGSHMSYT

[16] = biological target: Tyrosine-protein kinase Fyn (Homo sapiens, UniProt P06241); assay type: functional
[17] = biological target: BDNF/NT-3 growth factors receptor (Homo sapiens, UniProt Q16620); assay type: functional;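 note: NTRK2 measured as one member of a broad kinome-wide kinase profiling panel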
Chain of BDNF/NT-3 growth factors receptor (Q16620 whole entry): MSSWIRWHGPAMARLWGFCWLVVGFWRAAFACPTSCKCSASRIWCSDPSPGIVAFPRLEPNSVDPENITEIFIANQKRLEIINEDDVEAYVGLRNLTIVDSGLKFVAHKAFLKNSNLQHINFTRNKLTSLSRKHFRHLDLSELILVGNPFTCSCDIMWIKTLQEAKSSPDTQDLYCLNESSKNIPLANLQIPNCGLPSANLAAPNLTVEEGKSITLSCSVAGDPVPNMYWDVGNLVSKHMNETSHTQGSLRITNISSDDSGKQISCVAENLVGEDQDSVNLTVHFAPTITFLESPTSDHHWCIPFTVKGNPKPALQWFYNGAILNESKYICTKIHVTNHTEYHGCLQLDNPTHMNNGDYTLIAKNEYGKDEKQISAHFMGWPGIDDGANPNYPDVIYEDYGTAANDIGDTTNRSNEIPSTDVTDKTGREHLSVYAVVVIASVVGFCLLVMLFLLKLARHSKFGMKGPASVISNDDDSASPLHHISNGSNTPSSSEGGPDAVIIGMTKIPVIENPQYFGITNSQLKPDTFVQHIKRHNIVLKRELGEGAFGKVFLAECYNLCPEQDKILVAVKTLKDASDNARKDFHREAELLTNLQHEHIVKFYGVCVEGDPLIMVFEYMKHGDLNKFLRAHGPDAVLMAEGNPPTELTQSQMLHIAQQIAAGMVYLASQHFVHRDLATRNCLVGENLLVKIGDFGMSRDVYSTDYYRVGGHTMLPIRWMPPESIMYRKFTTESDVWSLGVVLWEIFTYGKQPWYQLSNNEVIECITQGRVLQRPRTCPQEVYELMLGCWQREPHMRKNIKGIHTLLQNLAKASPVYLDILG

[18] = biological target: Dual specificity protein kinase CLK4 (Homo sapiens, UniProt Q9HAZ1); assay type: functional
Chain of Dual specificity protein kinase CLK4 (Q9HAZ1 whole entry): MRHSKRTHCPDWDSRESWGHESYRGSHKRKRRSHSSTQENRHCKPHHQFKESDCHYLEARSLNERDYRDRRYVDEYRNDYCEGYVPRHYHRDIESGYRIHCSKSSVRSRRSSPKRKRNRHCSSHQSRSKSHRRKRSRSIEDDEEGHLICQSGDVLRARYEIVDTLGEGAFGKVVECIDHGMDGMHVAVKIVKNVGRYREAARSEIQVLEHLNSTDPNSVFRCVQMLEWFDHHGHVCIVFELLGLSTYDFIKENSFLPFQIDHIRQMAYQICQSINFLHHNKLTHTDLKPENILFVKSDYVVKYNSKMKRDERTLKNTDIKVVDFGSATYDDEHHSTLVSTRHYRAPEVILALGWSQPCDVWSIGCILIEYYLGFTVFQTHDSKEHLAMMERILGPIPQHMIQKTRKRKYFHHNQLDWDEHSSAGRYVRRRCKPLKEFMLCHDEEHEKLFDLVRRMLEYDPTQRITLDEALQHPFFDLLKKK

Chain of Potassium voltage-gated channel subfamily KQT member 2 (O88943 whole entry, the tested form may be a part): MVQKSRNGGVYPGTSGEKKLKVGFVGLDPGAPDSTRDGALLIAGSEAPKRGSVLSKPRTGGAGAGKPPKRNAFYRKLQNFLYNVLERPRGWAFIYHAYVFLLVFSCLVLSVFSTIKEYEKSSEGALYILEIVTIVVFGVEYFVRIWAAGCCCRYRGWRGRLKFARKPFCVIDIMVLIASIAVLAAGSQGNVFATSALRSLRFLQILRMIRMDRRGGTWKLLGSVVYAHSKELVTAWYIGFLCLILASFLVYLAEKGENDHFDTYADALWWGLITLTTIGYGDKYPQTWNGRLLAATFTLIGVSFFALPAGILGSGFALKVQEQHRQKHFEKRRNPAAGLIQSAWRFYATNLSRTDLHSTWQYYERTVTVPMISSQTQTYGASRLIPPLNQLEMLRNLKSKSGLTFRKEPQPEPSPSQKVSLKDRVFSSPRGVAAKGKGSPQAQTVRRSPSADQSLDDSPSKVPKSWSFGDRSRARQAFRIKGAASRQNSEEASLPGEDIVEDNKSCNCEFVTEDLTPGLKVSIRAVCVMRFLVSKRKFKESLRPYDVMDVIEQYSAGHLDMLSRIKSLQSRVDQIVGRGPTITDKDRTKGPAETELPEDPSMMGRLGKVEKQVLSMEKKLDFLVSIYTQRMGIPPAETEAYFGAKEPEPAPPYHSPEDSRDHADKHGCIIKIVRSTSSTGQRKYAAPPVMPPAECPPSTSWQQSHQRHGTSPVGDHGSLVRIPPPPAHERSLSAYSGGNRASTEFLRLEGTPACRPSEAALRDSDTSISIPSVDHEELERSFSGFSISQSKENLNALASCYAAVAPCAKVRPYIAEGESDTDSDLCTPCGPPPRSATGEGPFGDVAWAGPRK

**Q.** With `COc1ccc(Nc2ccccc2NC(=O)c2ccccc2Br)cc1` as the molecule, how does the IC50 [1] read?
**A.** 4.81 µM (active)

**Q.** For `Cc1ccc2c(C)c(C(=O)N3CCN(c4ncccn4)CC3)oc2c1C`, which IC50 [1] is on record?
**A.** 4.2 µM (active)

**Q.** Which EC50 [2] does the source give for `O=C1c2ccccc2C(=O)c2[nH]cnc21` here?
**A.** > 300 µM (not active)

**Q.** And the EC50 [3]?
**A.** 85.6 µM (active)

**Q.** And the AC50 [4]?
**A.** 7.57 µM (active)

**Q.** What about the EC50 [5] of the same molecule?
**A.** > 104 µM (inactive)

**Q.** With `CCOC(=O)c1c(NC(=O)OC)sc(C(=O)N(CC)CC)c1C` as the molecule, how does the IC50 [6] read?
**A.** 4.3 µM (active)

**Q.** What about the IC50 [7] of the same molecule?
**A.** 28.4 µM (inactive)

**Q.** And the IC50 [8]?
**A.** 1.56 µM (active)

**Q.** With `FC(F)(F)c1cnc(-c2cnc(-c3ccccn3)nc2)c(Cl)c1` as the molecule, how does the AC50 [9] read?
**A.** 75.3 µM (active)

**Q.** With `Nc1nc(=S)ss1` as the molecule, how does the EC50 [5] read?
**A.** 10.3 µM (inactive)

**Q.** What about the IC50 [10] of the same molecule?
**A.** 301 µM (active)

**Q.** For `O=C(Nc1ccccc1N1CCCC1)c1ccc2ccccc2n1`, which Ki [11] is on record?
**A.** > 6.31 µM (inactive)

**Q.** And the Ki [12]?
**A.** > 6.31 µM (inactive)

**Q.** And the Ki [13]?
**A.** > 6.31 µM (inactive)

**Q.** What about the Ki [14] of the same molecule?
**A.** > 6.31 µM (inactive)

**Q.** And the Ki [15]?
**A.** > 6.31 µM (inactive)

**Q.** What about the Ki [16] of the same molecule?
**A.** > 6.31 µM (inactive)

**Q.** What about the Ki [17] of the same molecule?
**A.** 0.631 µM (active)

**Q.** And the Ki [18]?
**A.** 1.26 µM (active)

Source: ChEMBL document CHEMBL1201862, “PubChem BioAssay data set” (2004)
